PubChem BioAssay (NCI)
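Exposure lasted 48 hours, with cells grown in 96-well plates and compounds tested at five concentrations. TGI denotes the concentration required for complete inhibition of growth.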

What was measured:
Test in all cases: inhibition of tumour cell growth, NCI panel, 48 h
MCF7 breast = system: MCF7 breast
SNB-19 CNS = system: SNB-19 CNS
UO-31 renal = system: UO-31 renal
SK-MEL-2 melanoma = system: SK-MEL-2 melanoma
HCT-15 colon = system: HCT-15 colon
SK-MEL-28 melanoma = system: SK-MEL-28 melanoma
A498 renal = system: A498 renal
MDA-N = system: MDA-N
T-47D breast = system: T-47D breast
COLO 205 colon = system: COLO 205 colon
SN12C renal = system: SN12C renal
SF-539 CNS = system: SF-539 CNS
HCC-2998 colon = system: HCC-2998 colon
786-0 renal = system: 786-0 renal
TK-10 renal = system: TK-10 renal
NCI-H23 lung = system: NCI-H23 lung
OVCAR-4 ovarian = system: OVCAR-4 ovarian
NCI-H522 lung = system: NCI-H522 lung
MDA-MB-435 = system: MDA-MB-435
LOX IMVI melanoma = system: LOX IMVI melanoma
U251 CNS = system: U251 CNS
RPMI-8226 leukemia = system: RPMI-8226 leukemia
A549 NSCLC = system: A549 NSCLC
RXF 393 renal = system: RXF 393 renal
NCI-H226 lung = system: NCI-H226 lung
M14 melanoma = system: M14 melanoma
UACC-62 melanoma = system: UACC-62 melanoma
SR leukemia = system: SR leukemia
NCI/ADR-RES ovarian = system: NCI/ADR-RES ovarian
MDA-MB-231 breast = system: MDA-MB-231 breast
HCT-116 colon = system: HCT-116 colon
HOP-62 NSCLC = system: HOP-62 NSCLC
SK-MEL-5 melanoma = system: SK-MEL-5 melanoma
IGROV1 ovarian = system: IGROV1 ovarian
EKVX NSCLC = system: EKVX NSCLC
SNB-75 CNS = system: SNB-75 CNS
ACHN renal = system: ACHN renal
SF-295 CNS = system: SF-295 CNS
OVCAR-5 ovarian = system: OVCAR-5 ovarian
DU-145 prostate = system: DU-145 prostate
HT29 colon = system: HT29 colon
KM12 colon = system: KM12 colon
CCRF-CEM leukemia = system: CCRF-CEM leukemia
NCI-H460 lung = system: NCI-H460 lung
UACC-257 melanoma = system: UACC-257 melanoma
PC-3 prostate = system: PC-3 prostate
MOLT-4 leukemia = system: MOLT-4 leukemia
OVCAR-8 ovarian = system: OVCAR-8 ovarian
SW-620 colon = system: SW-620 colon
HS 578T breast = system: HS 578T breast
OVCAR-3 ovarian = system: OVCAR-3 ovarian
SF-268 CNS = system: SF-268 CNS
HL-60(TB) leukemia = system: HL-60(TB) leukemia
MALME-3M melanoma = system: MALME-3M melanoma
CAKI-1 renal = system: CAKI-1 renal
HOP-92 NSCLC = system: HOP-92 NSCLC
SK-OV-3 ovarian = system: SK-OV-3 ovarian
K-562 leukemia = system: K-562 leukemia

`O=C(O)c1cc(-c2ccc3c(O)ccc(O)c3c2)ccc1O` was tested, and the TGI (MCF7 breast) was 39.6 µM, the TGI (SNB-19 CNS) was > 100 µM and the TGI (UO-31 renal) was 31.3 µM. The TGI (SK-MEL-2 melanoma) was 34.3 µM, the TGI (HCT-15 colon) was 34.4 µM and the TGI (SK-MEL-28 melanoma) was 41.5 µM. It also gave a TGI (A498 renal) of 32 µM, a TGI (MDA-N) of 31.6 µM and a TGI (T-47D breast) of 35.3 µM. It also gave a TGI (COLO 205 colon) of 39.4 µM, a TGI (SN12C renal) of 31.6 µM and a TGI (SF-539 CNS) of 30.8 µM. It also gave a TGI (HCC-2998 colon) of 32.6 µM, a TGI (786-0 renal) of 30.2 µM and a TGI (TK-10 renal) of 35.6 µM. The TGI (NCI-H23 lung) was 64.9 µM, the TGI (OVCAR-4 ovarian) was 31.2 µM and the TGI (NCI-H522 lung) was 36.5 µM. For the same compound, the TGI (MDA-MB-435) was 34.4 µM, the TGI (LOX IMVI melanoma) was 29.8 µM and the TGI (U251 CNS) was 41.3 µM. The TGI (RPMI-8226 leukemia) was > 100 µM, the TGI (A549 NSCLC) was > 100 µM and the TGI (RXF 393 renal) was 27.9 µM. For the same compound, the TGI (NCI-H226 lung) was 44 µM, the TGI (M14 melanoma) was 47.7 µM and the TGI (UACC-62 melanoma) was 33.8 µM. For the same compound, the TGI (SR leukemia) was > 100 µM, the TGI (NCI/ADR-RES ovarian) was 82.4 µM and the TGI (MDA-MB-231 breast) was 39.6 µM. It also gave a TGI (HCT-116 colon) of 32.6 µM, a TGI (HOP-62 NSCLC) of 98.9 µM and a TGI (SK-MEL-5 melanoma) of 28.2 µM. The TGI (IGROV1 ovarian) was 31.9 µM, the TGI (EKVX NSCLC) was 34.7 µM and the TGI (SNB-75 CNS) was 60.1 µM. It also gave a TGI (ACHN renal) of 33.4 µM, a TGI (SF-295 CNS) of 33.8 µM and a TGI (OVCAR-5 ovarian) of 32.3 µM. For the same compound, the TGI (DU-145 prostate) was 52.3 µM, the TGI (HT29 colon) was 43.9 µM and the TGI (KM12 colon) was 43.2 µM. For the same compound, the TGI (CCRF-CEM leukemia) was 5.58 µM, the TGI (NCI-H460 lung) was 48.5 µM and the TGI (UACC-257 melanoma) was 33 µM. For the same compound, the TGI (PC-3 prostate) was 26.3 µM, the TGI (MOLT-4 leukemia) was 16.3 µM and the TGI (OVCAR-8 ovarian) was 54.4 µM. For the same compound, the TGI (SW-620 colon) was 28.6 µM, the TGI (HS 578T breast) was 73.5 µM and the TGI (OVCAR-3 ovarian) was 43.5 µM. The TGI (SF-268 CNS) was 82.9 µM, the TGI (HL-60(TB) leukemia) was > 100 µM and the TGI (MALME-3M melanoma) was 36.3 µM. For the same compound, the TGI (CAKI-1 renal) was 30.2 µM.

`CCOC(=O)C(NC(=O)CC(C)C)(NC(C)C)C(F)(F)F` (stereo unspecified) was tested, and the TGI (MCF7 breast) was > 100 µM, the TGI (SNB-19 CNS) was > 100 µM and the TGI (UO-31 renal) was > 100 µM. For the same compound, the TGI (SK-MEL-2 melanoma) was > 100 µM, the TGI (HCT-15 colon) was > 100 µM and the TGI (SK-MEL-28 melanoma) was > 100 µM. For the same compound, the TGI (A498 renal) was > 100 µM, the TGI (MDA-N) was > 100 µM and the TGI (T-47D breast) was > 100 µM. The TGI (COLO 205 colon) was > 100 µM, the TGI (SN12C renal) was > 100 µM and the TGI (SF-539 CNS) was > 100 µM. The TGI (HCC-2998 colon) was > 100 µM, the TGI (786-0 renal) was > 100 µM and the TGI (TK-10 renal) was > 100 µM. The TGI (NCI-H23 lung) was > 100 µM, the TGI (OVCAR-4 ovarian) was > 100 µM and the TGI (NCI-H522 lung) was > 100 µM. For the same compound, the TGI (MDA-MB-435) was > 100 µM, the TGI (LOX IMVI melanoma) was > 100 µM and the TGI (U251 CNS) was > 100 µM. The TGI (RPMI-8226 leukemia) was > 100 µM, the TGI (A549 NSCLC) was > 100 µM and the TGI (HOP-92 NSCLC) was > 100 µM. For the same compound, the TGI (RXF 393 renal) was > 100 µM, the TGI (NCI-H226 lung) was > 100 µM and the TGI (SK-OV-3 ovarian) was > 100 µM. For the same compound, the TGI (M14 melanoma) was > 100 µM, the TGI (SR leukemia) was > 100 µM and the TGI (NCI/ADR-RES ovarian) was > 100 µM. For the same compound, the TGI (MDA-MB-231 breast) was > 100 µM, the TGI (HCT-116 colon) was > 100 µM and the TGI (HOP-62 NSCLC) was > 100 µM. For the same compound, the TGI (SK-MEL-5 melanoma) was > 100 µM, the TGI (IGROV1 ovarian) was > 100 µM and the TGI (EKVX NSCLC) was > 100 µM. For the same compound, the TGI (ACHN renal) was > 100 µM, the TGI (SF-295 CNS) was > 100 µM and the TGI (OVCAR-5 ovarian) was > 100 µM. For the same compound, the TGI (DU-145 prostate) was > 100 µM, the TGI (HT29 colon) was > 100 µM and the TGI (KM12 colon) was > 100 µM. For the same compound, the TGI (CCRF-CEM leukemia) was > 100 µM, the TGI (NCI-H460 lung) was > 100 µM and the TGI (UACC-257 melanoma) was > 100 µM. For the same compound, the TGI (PC-3 prostate) was > 100 µM, the TGI (K-562 leukemia) was > 100 µM and the TGI (MOLT-4 leukemia) was > 100 µM. For the same compound, the TGI (OVCAR-8 ovarian) was > 100 µM, the TGI (SW-620 colon) was > 100 µM and the TGI (HS 578T breast) was > 100 µM. For the same compound, the TGI (OVCAR-3 ovarian) was > 100 µM, the TGI (SF-268 CNS) was > 100 µM and the TGI (HL-60(TB) leukemia) was > 100 µM. The TGI (MALME-3M melanoma) was > 100 µM and the TGI (CAKI-1 renal) was > 100 µM.

`N#Cc1c(N)nc(Nc2cccc3ccccc23)c(C#N)c1C#N` was tested, and the TGI (MCF7 breast) was > 10 µM, the TGI (SNB-19 CNS) was > 10 µM and the TGI (UO-31 renal) was > 10 µM. The TGI (SK-MEL-2 melanoma) was > 10 µM, the TGI (HCT-15 colon) was > 10 µM and the TGI (SK-MEL-28 melanoma) was > 10 µM. For the same compound, the TGI (A498 renal) was > 10 µM, the TGI (MDA-N) was 4 µM and the TGI (T-47D breast) was > 10 µM. For the same compound, the TGI (COLO 205 colon) was > 10 µM, the TGI (SN12C renal) was > 10 µM and the TGI (SF-539 CNS) was > 10 µM. For the same compound, the TGI (HCC-2998 colon) was > 10 µM, the TGI (TK-10 renal) was > 10 µM and the TGI (NCI-H23 lung) was > 10 µM. The TGI (OVCAR-4 ovarian) was > 10 µM, the TGI (NCI-H522 lung) was > 10 µM and the TGI (MDA-MB-435) was > 10 µM. For the same compound, the TGI (LOX IMVI melanoma) was 4.36 µM, the TGI (U251 CNS) was > 10 µM and the TGI (RPMI-8226 leukemia) was 6.19 µM. The TGI (A549 NSCLC) was > 10 µM, the TGI (RXF 393 renal) was > 10 µM and the TGI (NCI-H226 lung) was > 10 µM. For the same compound, the TGI (SK-OV-3 ovarian) was > 10 µM, the TGI (M14 melanoma) was > 10 µM and the TGI (UACC-62 melanoma) was > 10 µM. For the same compound, the TGI (SR leukemia) was 9.29 µM, the TGI (NCI/ADR-RES ovarian) was > 10 µM and the TGI (MDA-MB-231 breast) was > 10 µM. The TGI (HCT-116 colon) was > 10 µM, the TGI (HOP-62 NSCLC) was > 10 µM and the TGI (SK-MEL-5 melanoma) was > 10 µM. The TGI (IGROV1 ovarian) was > 10 µM, the TGI (EKVX NSCLC) was > 10 µM and the TGI (SNB-75 CNS) was > 10 µM. The TGI (ACHN renal) was > 10 µM, the TGI (SF-295 CNS) was > 10 µM and the TGI (OVCAR-5 ovarian) was > 10 µM. For the same compound, the TGI (DU-145 prostate) was > 10 µM, the TGI (HT29 colon) was > 10 µM and the TGI (KM12 colon) was > 10 µM. The TGI (CCRF-CEM leukemia) was 6.05 µM, the TGI (NCI-H460 lung) was > 10 µM and the TGI (PC-3 prostate) was > 10 µM. For the same compound, the TGI (K-562 leukemia) was 9.64 µM, the TGI (MOLT-4 leukemia) was 9.2 µM and the TGI (OVCAR-8 ovarian) was > 10 µM. The TGI (SW-620 colon) was > 10 µM, the TGI (HS 578T breast) was 8.7 µM and the TGI (OVCAR-3 ovarian) was 7.57 µM. For the same compound, the TGI (SF-268 CNS) was > 10 µM, the TGI (HL-60(TB) leukemia) was 4.77 µM and the TGI (MALME-3M melanoma) was > 10 µM. The TGI (CAKI-1 renal) was > 10 µM.
